According to patent US9249147B2, “Tyrosine kinase inhibitors” (CHEMBRIDGE CORPORATION, priority 2008, dated 2016):
pIC50: −log10 of the molar value. ≈ marks a conversion by molar mass, not a printed value. Where “and” joins values, the source holds several entries; their conditions need not be identical. Equal entries are not always repeated. Where two headings read alike, the source gives them in different places.

Tests used:
[1] = test system: 10 Ser-Thr kinases; assay: Single point radiometric profiling on Ser-Thr kinases (Upstate/Millipore); type: biochemical; settings: 50 nM compound
Experimental: (§1) To evaluate selectivity versus other kinases, inhibition of various kinases by compound (II) was determined. In particular, IC50s for TrkA, Jak2, Axl tyrosine kinases were determined using ADP Hunter (DiscoverX) kinase assay. Single point profiling of compound (II) on 50 human tyrosine kinases and 10 Ser-Thr kinases was done at Upstate/Millipore by radiometric assay. […] The subset of the 520 kinases in the human kinome that were tested was strategically selected to cover most of the therapeutically relevant tyrosine kinases and to represent major branches of serine-threonine kinases.

[2] = test system: non-ALKdependent cell lines; assay: Cell proliferation inhibition, non-ALK-dependent control cell lines; type: cell-based; settings: 12 unrelated cell lines; read-out: Lowest IC50s for non-ALK-dependent cell lines
From the text: Cell proliferation inhibition assays were run for compound (II) with the five target NPM-ALK-dependent ALCL cell lines (Karpas 299, SuDHL-1, JB6, SupM2, UConn) and 12 unrelated cell lines (HEK293, CHO-K1, MCF7, HepG2, H292, H520, H1581, H596, H522, CHA-GO-K1, UMC-11, SK-MES1). […] The pronounced target cell-killing effect is also observed (molecular mechanisms to be determined).

[3] = Acute IV toxicity in mice; type: in vivo; settings: 1 mg/kg intravenously, 24 hour observation
[4] = Aqueous Solubility (PBS, pH 7.4); type: physicochemical; settings: for solubility: pH 7.4, PBS
[5] = Pharmacokinetics study in CD-1 mice (IV, PO); type: in vivo; settings: for MRT inf: read-out: MRT(0-∞); for concentration at 4 h: time point 4, Mean
Experimental: A comprehensive PK study was run in CD-1 strain of mice with IV (1 mg/kg) and PO (5 mg/kg) routes of drug delivery and analytical data collection at 10 time points over 24 hours (Medicilon, Study CRL0703).
Blood samples were collected by removing the eyeballs at pre-dose and 0.083, 0.25, 0.5, 1, 2, 4, 6, 8, and 24 hours post-dose. The plasma samples and the dose formulation were stored at −20° C. until bioanalysis.

[6] = Solubility in acidic aqueous formulation vehicle; type: physicochemical; settings: pH 4-6
Experimental: The solubility of compound (II) in aqueous buffers has been tested at Cerep, as part of ADMET Study 13170. […] Such aqueous solubility was at least as good as or higher than a typical one for a small molecule, ATP-competitive kinase inhibitor. The compound has much higher aqueous solubility at lower pH. 20-50 mM acetic or tartaric acid (pH 4-6) was used to dissolve the compound at concentrations up to 5 mg/ml (or ˜10 mM); this type of formulation was used for our animal toxicity and PK studies. Compound (II) was also well soluble in such organic solvents as DMSO or N-methyl pyrrolidone and can be subsequently solubilized in aqueous formulations containing 2% Tween 80 or 5-20% Solutol HS15.

[7] = Pharmacokinetics study in CD-1 mice (IV, PO); type: in vivo; settings: IV 1 mg/kg, time point 0.35, individual animals A-D
[8] = target: RET (Homo sapiens, UniProt P07949); assay: Invitrogen SelectScreen Z-lyte kinase assay, Ret; type: biochemical; parameters: purchased Invitrogen (SelectScreen service); settings: 100 μM ATP
RET, sequence (P07949 29-1114): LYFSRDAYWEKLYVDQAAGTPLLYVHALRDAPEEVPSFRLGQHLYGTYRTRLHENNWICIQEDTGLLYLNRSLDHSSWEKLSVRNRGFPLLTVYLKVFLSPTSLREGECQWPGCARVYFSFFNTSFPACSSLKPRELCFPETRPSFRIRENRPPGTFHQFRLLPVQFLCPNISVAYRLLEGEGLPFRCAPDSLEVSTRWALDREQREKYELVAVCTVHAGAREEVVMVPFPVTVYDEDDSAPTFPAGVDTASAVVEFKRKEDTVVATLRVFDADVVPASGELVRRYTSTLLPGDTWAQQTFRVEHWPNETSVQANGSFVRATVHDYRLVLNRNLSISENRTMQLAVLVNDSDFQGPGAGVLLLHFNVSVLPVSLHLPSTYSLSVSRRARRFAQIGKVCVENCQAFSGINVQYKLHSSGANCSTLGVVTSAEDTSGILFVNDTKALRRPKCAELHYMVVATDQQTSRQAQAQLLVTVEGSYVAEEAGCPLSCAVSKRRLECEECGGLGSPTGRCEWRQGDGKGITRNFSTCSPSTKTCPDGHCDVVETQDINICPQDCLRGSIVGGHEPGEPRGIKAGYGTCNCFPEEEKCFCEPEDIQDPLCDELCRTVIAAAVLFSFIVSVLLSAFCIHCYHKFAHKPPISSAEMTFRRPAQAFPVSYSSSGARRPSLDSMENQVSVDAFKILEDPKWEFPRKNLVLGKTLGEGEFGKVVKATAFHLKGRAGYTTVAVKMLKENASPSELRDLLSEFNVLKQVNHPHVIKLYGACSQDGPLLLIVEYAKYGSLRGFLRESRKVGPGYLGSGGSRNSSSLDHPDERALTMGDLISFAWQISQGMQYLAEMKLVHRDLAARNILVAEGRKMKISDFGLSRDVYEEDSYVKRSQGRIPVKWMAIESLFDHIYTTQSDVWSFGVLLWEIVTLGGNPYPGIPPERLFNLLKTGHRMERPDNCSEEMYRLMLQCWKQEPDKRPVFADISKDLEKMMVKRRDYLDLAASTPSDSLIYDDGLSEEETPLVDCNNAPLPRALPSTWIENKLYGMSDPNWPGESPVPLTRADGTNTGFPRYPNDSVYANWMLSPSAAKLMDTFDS
Experimental: as §1
Compound (II) was a multitargeted tyrosine kinase (TK) inhibitor with a distinct pattern of inhibition focused on ALK, Trk family, Ros and Ret kinases. Invitrogen SelectScreen (Z-lyte assay) produced the following IC5O values for this set of kinases: ALK 9.75 nM, TrkA 1.5 nM, TrkB 1.4 nM, TrkC 1.8 nM, Ret 7.1 nM, Ros 1.8 nM (all measured at 100 μM ATP). […] About 70% of the 50 TKs tested have selectivity in excess of 50-fold for ALK and higher for Ret, Ros and Trk family members.

[9] = CD-1, mouse, plasma, iv, 1 mg/kg, IV 1 mg/kg, CD-1 mice, Mean
[10] = CD-1, mouse, plasma, iv, 1 mg/kg, IV 1 mg/kg, individual animals A-D
[11] = IV 1 mg/kg, individual animals A-D, 1 mg/kg

SMILES: Cc1ccc(F)cc1C[C@H](C)Nc1cc[nH]c(=O)c1-c1nc2cc3c(cc2[nH]1)C(=O)N(CCN1CCCC1)C3 [compound (II)]
- Inhibition of 10 structurally diverse Ser-Thr kinases [1]: did not cause any significant inhibition
- pIC50 [2]: ~5.60
- Acute IV toxicity [3]: no signs of toxicity were observed
- Solubility 1st/2nd ([4]; pH 7.4, 2.0E−04 M, individual data, listed as CRL241): 33.81 μm
- solubility ([4]; pH 7.4, 2.0E−04 M, Tables 9C, 9D, read-out: Solubility Mean): 33.9 µM (≈ 17.9 µg/mL)
- solubility ([4]; pH 7.4, 2.0E−04 M, individual data, read-out: Solubility 1st/2nd): 34 µM (≈ 18 µg/mL)
- solubility at 24 h ([4]; pH 7.4, test concentration 2.0E−04 M, 24 hours, RT): 34 µM (≈ 18 µg/mL)
- AUC(0-inf) [5, 9]: 105 ng·h/mL
- Tmax [5, 9]: 4.8 min
- AUC(0-t) ([5]; CD-1, mouse, plasma, iv, 1 mg/kg, IV 1 mg/kg, CD-1 mice, Mean, read-out: AUC(0-t)): 102 ng·h/mL
- Cmax ([5]; CD-1, mouse, plasma, iv, 1 mg/kg, IV 1 mg/kg, CD-1 mice, Mean, read-out: Cmax): 186 ng/mL
- MRT inf [5, 9]: 1.36 h
- AUC(0-inf) [5, 10]: 102 ng·h/mL
- Tmax [5, 10]: 4.98 min
- AUC(0-t) ([5]; CD-1, mouse, plasma, iv, 1 mg/kg, IV 1 mg/kg, individual animals A-D, read-out: AUC(0-t)): 100 ng·h/mL
- Cmax ([5]; CD-1, mouse, plasma, iv, 1 mg/kg, IV 1 mg/kg, individual animals A-D, read-out: Cmax): 248 ng/mL
- MRT inf [5, 10]: 1.37 h
- concentration at […] ([5]; CD-1, mouse, plasma, iv, 1 mg/kg, IV 1 mg/kg, time point 0.083, Mean): 186 ng/mL
- concentration at […] ([5]; CD-1, mouse, plasma, iv, 1 mg/kg, IV 1 mg/kg, time point 0.083, individual animals A-D): 163 ng/mL
- concentration at […] ([5]; CD-1, mouse, plasma, iv, 1 mg/kg, IV 1 mg/kg, time point 0.35, Mean): 74 ng/mL
- concentration at 0.5 h ([5]; CD-1, mouse, plasma, iv, 1 mg/kg, IV 1 mg/kg, time point 0.5, Mean): 32.9 ng/mL
- concentration at 0.5 h ([5]; CD-1, mouse, plasma, iv, 1 mg/kg, IV 1 mg/kg, time point 0.5, individual animals A-D): 36.8 ng/mL
- concentration at 1 h ([5]; CD-1, mouse, plasma, iv, 1 mg/kg, IV 1 mg/kg, time point 1, Mean): 18.9 ng/mL
- concentration at 1 h ([5]; CD-1, mouse, plasma, iv, 1 mg/kg, IV 1 mg/kg, time point 1, individual animals A-D): 14.1 ng/mL
- concentration at 2 h ([5]; CD-1, mouse, plasma, iv, 1 mg/kg, IV 1 mg/kg, time point 2, Mean): 10.2 ng/mL
- concentration at 2 h ([5]; CD-1, mouse, plasma, iv, 1 mg/kg, IV 1 mg/kg, time point 2, individual animals A-D): 10.4 ng/mL
- concentration at 4 h ([5]; CD-1, mouse, plasma, iv, 1 mg/kg, IV 1 mg/kg): 5.05 ng/mL
- concentration at 6 h ([5]; CD-1, mouse, plasma, iv, 1 mg/kg, IV 1 mg/kg, time point 6, Mean): 2.18 ng/mL
- concentration at 6 h ([5]; CD-1, mouse, plasma, iv, 1 mg/kg, IV 1 mg/kg, time point 6, individual animals A-D): 2.13 ng/mL
- concentration at […] ([5]; CD-1, mouse, plasma, po, 5 mg/kg, PO 5 mg/kg, time point 0.083, Mean): 1.24 ng/mL
- concentration at […] ([5]; CD-1, mouse, plasma, po, 5 mg/kg, PO 5 mg/kg, time point 0.083, individual animals A-D): 2.07 ng/mL
- concentration at […] ([5]; CD-1, mouse, plasma, po, 5 mg/kg, PO 5 mg/kg, time point 0.35, individual animals A-D): 1.21 ng/mL
- concentration at 2 h ([5]; CD-1, mouse, plasma, po, 5 mg/kg, PO 5 mg/kg, time point 2, Mean): 1.01 ng/mL
- concentration at 2 h ([5]; CD-1, mouse, plasma, po, 5 mg/kg, PO 5 mg/kg, time point 2, individual animals A-D): 1.47 ng/mL
- concentration at 4 h ([5]; CD-1, mouse, plasma, po, 5 mg/kg, PO 5 mg/kg): 3.64 ng/mL
- concentration at 6 h ([5]; CD-1, mouse, plasma, po, 5 mg/kg, PO 5 mg/kg, time point 6, individual animals A-D): 1.34 ng/mL
- CL2 ([5]; IV 1 mg/kg, CD-1 mice, Mean): 159 mL/min/kg
- V2 ([5]; IV 1 mg/kg, CD-1 mice, Mean): 18.63 L/kg
- AUC(0-t) [5, 11]: 96.033 ng·h/mL and 110.999 ng·h/mL and 102.243 ng·h/mL
- AUC(0-∞) [5, 11]: 97.734 ng·h/mL and 116.619 ng·h/mL and 105.516 ng·h/mL
- CL2 [5, 11]: 163.5 mL/min/kg and 170.53 mL/min/kg and 142.9 mL/min/kg and 158 mL/min/kg
- Cmax [5, 11]: 144.182 ng/mL and 163.492 ng/mL and 186.531 ng/mL
- MRT(0-∞) [5, 11]: 1.295 h and 1.614 h and 1.176 h
- T1/2z [5, 11]: 1.16 h and 1.124 h and 1.81 h and 1.395 h
- V2 [5, 11]: 16.427 L/kg and 16.598 L/kg and 22.401 L/kg and 19.076 L/kg
- Plasma Concentration ([5]; IV 1 mg/kg, time point 0.083, individual animals A-D, 1 mg/kg): 186.53 ng/mL and 248.44 ng/mL and 144.18 ng/mL
- Plasma Concentration ([5]; IV 1 mg/kg, time point 0.5, individual animals A-D, 1 mg/kg): 29.12 ng/mL and 31.99 ng/mL and 33.27 ng/mL
- Plasma Concentration ([5]; IV 1 mg/kg, time point 1, individual animals A-D, 1 mg/kg): 19.36 ng/mL and 19.24 ng/mL and 22.93 ng/mL
- Plasma Concentration ([5]; IV 1 mg/kg, time point 2, individual animals A-D, 1 mg/kg): 8.73 ng/mL and 9.58 ng/mL and 12.30 ng/mL
- Plasma Concentration ([5]; IV 1 mg/kg, time point 4, individual animals A-D, 1 mg/kg): 8.09 ng/mL and 4.47 ng/mL and 3.14 ng/mL and 3.60 ng/mL
- Plasma Concentration ([5]; IV 1 mg/kg, time point 6, individual animals A-D, 1 mg/kg): 1.81 ng/mL and 3.23 ng/mL and 1.77 ng/mL
- Plasma Concentration ([5]; IV 1 mg/kg, time point 8, individual animals A-D): BLQ
- Plasma Concentration ([5]; IV 1 mg/kg, time point 24, individual animals A-D): BLQ
- Volume of distribution relative to total body water ([5]; IV, mice): 26 fold
- Plasma Concentration ([5]; PO 5 mg/kg, time point 0.083, individual animals A-D, 5 mg/kg): 2.19 ng/mL and BLQ (2×)
- Plasma Concentration ([5]; PO 5 mg/kg, time point 0.35, individual animals A-D, 5 mg/kg): BLQ
- Plasma Concentration ([5]; PO 5 mg/kg, time point 0.5, individual animals A-D): BLQ
- Plasma Concentration ([5]; PO 5 mg/kg, time point 1, individual animals A-D): BLQ
- Plasma Concentration ([5]; PO 5 mg/kg, time point 2, individual animals A-D, 5 mg/kg): 1.00 ng/mL and BLQ (2×)
- Plasma Concentration ([5]; PO 5 mg/kg, time point 4, individual animals A-D, 5 mg/kg): 6.06 ng/mL and 1.90 ng/mL and 1.22 ng/mL and 5.39 ng/mL
- Plasma Concentration ([5]; PO 5 mg/kg, time point 6, individual animals A-D, 5 mg/kg): BLQ
- Plasma Concentration ([5]; PO 5 mg/kg, time point 8, individual animals A-D): BLQ
- Plasma Concentration ([5]; PO 5 mg/kg, time point 24, individual animals A-D): BLQ
- half-life ([5]; mouse, plasma, IV 1 mg/kg, CD-1 mice, Mean, read-out: T1/2z (plasma half-life) (converted)): 1.37 h
- bioavailability ([5]; mouse, plasma, PO 5 mg/kg vs IV 1 mg/kg, CD-1 mice): < 1%
- Concentration dissolved in 20-50 mM acetic or tartaric acid [6]: up to 5 mg/ml
- Plasma Concentration [7]: 100.41 ng/mL and 89.28 ng/mL and 41.61 ng/mL and 64.53 ng/mL
- pIC50 [8]: 8.15
